Legend:
coniophora puteana = assay: EN113 test after EN84 washing, pine timber, coniophora puteana; type: cell-based
Description: (§1) Timber pieces were positioned in a treating vessel. Over a period of 30 minutes a pressure of 0.1 bar was applied. The treating solution containing a Product was sucked into the vessel. Then the pressure in the vessel was increased to 10 bar at 25° C. for 90 minutes. Afterwards the pressure was set to ambient pressure and the remainder of the treating solution was removed. The impregnated timber pieces were dried at ambient temperature.
(§2) In both tables 13 and 14 the standard applied is EN113. Prior to EN113, the timber was washed according to EN84. The type of timber used was pine.
(§3) Tables 13 and 14 show the average retention of the active ingredient (AI) in Product C when it is exposed to both “poria placenta” (table 13) and “coniophora puteana” (table 14). Comparisons are also made with retention values of DPAB and the azol (triadimefon) in the timber. Average AI retention values are required in order to pass the EN113 Standard.
(§4) In both tables 15 and 16 the standard applied is EN113. Prior to EN113, the timber was washed according to EN84. The type of timber used was pine.
(§5) As for product C, tables 15 and 16 show the average retention of the active ingredient (AI) in Product D when it is exposed to both “poria placenta” (table 15) and “coniophora puteana” (table 16). Comparisons are also made with retention values of DPAB and the azol (cyproconazol) in the timber. […]

poria placenta = assay: EN113 test after EN84 washing, pine timber, poria placenta; type: cell-based
Description: as §1, §2, §3, §4, §5

## di-decyl-poly-oxethyl-ammoninum borate [DPAB TGAI]
Coniophora puteana; coniophora puteana (Table 14)
  Average DPAB retention in timber: 7.40 kg/m^3
Coniophora puteana; coniophora puteana (Table 16)
  Average DPAB retention in timber: 7.40 kg/m^3
Poria placenta; poria placenta (Table 13)
  Average DPAB retention in timber: 4.50 kg/m^3
Poria placenta; poria placenta (Table 15)
  Average DPAB retention in timber: 4.50 kg/m^3

— patent US9808954B2, “Composition of a timber formulation comprising Cu salts and organic cyclic ingredients for the preservation of timber for decks” (Rutgers Organics GmbH, priority 2014, dated 2017)
